Here are results for three molecules from patent US11590155B2, “Substituted nucleosides, nucleotides and analogs thereof” (priority 2014, dated 2023).

SMILES strings stand for the structures.

In this test the test system is Ebola. Put plainly: microbe, parasite or virus in culture. It counts as cell-based. The settings on record: Zaire ebolavirus, HeLa, read-out: EC50 against Ebola.
Consider `[N-]=[N+]=NC[C@]1(CO)O[C@@H](n2ccc(N)nc2=O)[C@H](F)[C@@H]1O` [Compound 106], for which the EC50 (commonly the concentration at which the effect is half-maximal) was under 2000 nM.
On to `Nc1ccn([C@@H]2O[C@@](CO)(CCl)[C@@H](O)[C@H]2F)c(=O)n1` [compound 315], for which the concentration giving a half-maximal response (EC50) is under 25000 nM.
As to `[N-]=[N+]=N[C@]1(CO)O[C@@H](n2ccc(N)nc2=O)[C@H](F)[C@@H]1O` [compound 332], the EC50 is under 2000 nM.
